Structures can show the parent of a compound that is named as a salt.
What was measured:
[1] = test system: EAE in MOG-immunized mice; experiment: EAE model, therapeutic treatment; format: in vivo, mouse; conditions: oral, therapeutic setting
Sprague Dawley rats = experiment: Toxicity after single oral dose, rats; format: in vivo
Description: (§1) FIG. S7. Toxicity of AX-024 in mice and rats. (A) Effect of distinct single doses of AX024. HCl administered intraperitoneally on body weight gain of CD-1 mice over 14 days. The data represent the mean±s.e.m. (n=10 per group). (B) Effect of distinct single doses of AX024. HCl administered orally on body weight gain of Swiss albino mice over 14 days. The data represent the mean±s.e.m. (n=2 per group). (C) Effect of distinct single doses of AX-024. HCl administered per orally on body weight gain of Sprague Dawley rats over 14 days. The data represent the mean±s.e.m. (n=2 per group). (D) Summary of acute toxicological findings in different species and calculation of the human equivalent dose.

[2] = test system: murine naïve spleen B cells; experiment: B cell proliferation (CellTrace Violet); format: cell-based, mouse
Description: (§2) FIG. 2. Target specificity of AX-024. […] The experiment was repeated three times. […] RUs, response units.
Proliferation was calculated according to the total number of cell divisions (by Cell-Trace Violet dilution).

[3] = test system: Nck recruitment to the TCR; experiment: Co-immunoprecipitation of endogenous Nck with the TCR; format: cell-based; conditions: human blood T cells stimulated with anti-CD3
Description: as §2
For co-immunoprecipitation analysis of endogenous Nck, a total of […] enriched human blood T-cells were pre-incubated in serum-free RPMI medium with compound AX-024 before stimulation with soluble OKT3 (10 μg/ml) for 1 minute at 37° C. Cells were lysed as above, and immunoprecipitation was performed with OKT3 and protein A Sepharose beads. The resulting immunoprecipitated extracts were resolved in a 10% acrylamide SDS-PAGE gel for immunoblotting with a rabbit anti-Nck antibody and reprobed with anti-CD3ζ serum.

[4] = test system: human peripheral blood T cells stimulated with anti-CD3; experiment: Human blood T cell proliferation induced by anti-CD3 (CFSE dilution); format: cell-based
[5] = test system: thymocytes of 4 week-old C57BL/6 mice; experiment: Thymocyte differentiation in vivo; set-up: species or system mouse; conditions: administration for 10 days to 4-week-old mice
Description: FIG. S8. Effect of AX-024 on thymocyte differentiation. (A) Flow cytometry analysis of CD24 and TCR expression in thymocytes of 4 week-old C57BL/6 mice exposed to daily doses of oral AX-024 (10 mg/Kg and 40 mg/Kg) or to vehicle alone for 10 consecutive days. Both markers allowed the thymocytes to be divided into five subpopulations (a to e) that were reanalyzed according to CD4 and CD8 expression (right). The data below indicates the percentages of double negative (DN, CD4^− CD8^−), double positive (DP, CD4^+ CD8^+) and single positive (CDSP, CD4^+ CD8^−; CD8SP. CD4^− CD8^+) thymocytes within each a-to-e subpopulation. The data represent the mean±s.e.m. (n=6 mice per group). (B) Absolute cell number in the major thymic DN, DP, CD4SP, CD8SP subpopulations of mice analyzed in A. Numbers of pre- and post-beta selection (DN3 and DN4) and γδT cells are also indicated

[6] = test system: intracellular F-actin in human blood T cells; experiment: TCR-triggered actin polymerization (phalloidin staining); format: cell-based; conditions: T-cell, read-out: IC50 of inhibition of the anti-CD3 elicited increase of intracellular F-actin
[7] = test system: purified human blood T cells stimulated with anti-CD3; experiment: Microarray analysis of gene expression; format: cell-based; conditions: 1 nM, anti-CD3 4 hours, two donors
Description: RNA was extracted using the RNAeasy kit according to the manufacturer's instructions (QIAGEN 74134) and its integrity was assessed using an Agilent 2100 Bioanalyzer (Agilent). Labelling and hybridization were performed according to the protocols from Affymetrix. Briefly, 100 ng of total RNA were amplified and labelled using the WT Plus reagent kit (Affymetrix) and then hybridized to Human Gene 2.0 ST Array (Affymetrix). Washing and scanning were performed using the Affymetrix GeneChip System (GeneChip Hybridization Oven 645, GeneChip Fluidics Station 450 and GeneChip Scanner 7G).

ectromelia virus (ECTV) = conditions: mouse, in vivo
Swiss albino mice = experiment: Toxicity after single oral dose, mice; format: in vivo, mouse
Description: as §1

[8] = target: CD3ε PRS peptide binding to immobilized SH3.1(Nck1) domain (Homo sapiens, UniProt P16333); experiment: Surface plasmon resonance; conditions: SPR, maximum steady-state response units; read-out: IC50 for the inhibition of CD3ε peptide binding
Description: as §2
HBS-EP was used as the running buffer (10 mM HEPES [pH 7.4], 150 mM NaCl, 3 mM EDTA, 0.005% [v/v] Surfactant P20). Immobilization of the GST-Nck1(SH3.1) purified recombinant protein (final concentration 30 μg/ml) was performed by the amino coupling strategy using sodium acetate (10 mM) at pH 4.5 and 150 μL of a solution of EDC/NHS (v/v), with optimum immobilization achieved at approximately 5000 resonance units. For interaction experiments, increasing concentrations of the CD3ε peptide […] and AX-024 were used on the same chip. In all cases, the flow rate was […]. After each interaction, 2.5 M glycine (pH 2) was used to regenerate the surface, and the analyte response after regeneration was constant after repeated injections in all the experiments and within ±10% of the response following the first injection.

CD-1 mice = experiment: Acute toxicity, single intraperitoneal injection; format: in vivo, mouse; conditions: single intraperitoneal injection 2.8, 14, 70, 350 mg/kg
Description: as §1
Acute toxicity: Eight-week-old CD-1 mice were injected intraperitoneally with different amounts of the hydrochloride salt of AX-024 (AX-024.HCl) dissolved in 0.5 ml of saline. All animals were observed clinically for the appearance of macroscopically visible adverse reactions twice daily over 14 days, as well as immediately after AX-024 administration. A necropsy was carried out on each animal on day 14, and the abdominal, thoracic, and cranial cavities were examined in situ, together with their associated organs.

[9] = test system: B8R-reactive CD8 T cells in immunized mice; conditions: 10 or 40 mg/kg daily, 7 days

Row | Structure (SMILES) | neurological score reached [1] | toxicity for rodents after single administration (Sprague Dawley rats; doses as high 1600 mg/kg) | single oral doses without any adverse effects on body weight, organ size or lesions (Sprague Dawley rats; rats, oral) | B cell proliferation induced by TLR4 agonist LPS ([2]; LPS) | B cell proliferation induced by anti-CD40 ([2]; anti-CD40) | BCR-triggered B cell proliferation ([2]; anti-IgM stimulation, concentrations as high as 10 μM) | concentrations at which Nck recruitment to the TCR was inhibited (dose-dependent) [3] | concentration at which inhibitory effects were shown ([4]; T cell proliferation, anti-CD3) | potency relative to the AX-000 hit in inhibition of TCR-triggered T cell proliferation ([4]; more potent than AX-000) | thymocyte subset numbers [5] | IC50 [6] | number of genes transcriptionally downregulated [7] | percentage of IFN-γ responding CD8 T cells upon ex vivo B8R stimulation (ectromelia virus (ECTV)) | survival of rechallenge with lethal dose 60 days later (ectromelia virus (ECTV)) | survival rates, first challenge (ectromelia virus (ECTV)) | single oral doses without any adverse effects on body weight, organ size or lesions (Swiss albino mice) | IC50 [8] | body weight gain (CD-1 mice; 14 days) | adverse reactions (CD-1 mice; followed 14 days) | activation of CD8 T cell response to the viral epitope (IFN-γ production) [9]
1 | COc1ccc2c(c1)C(c1ccc(F)cc1)=C(CN1CCCC1)CO2 [AX-024] | 0 | not toxic | ≤ 1600 mg/kg | not inhibited | not inhibited | not inhibited | ≥ 1 nM | ≤ 1 pM | > 10,000 fold | did not have a significant impact | 1 nM | 1093 genes | indistinguishable from that of the vehicle group | resisted the lethal dose, regardless of their AX-024 treatment history | did not influence survival rates | ≤ 400 mg/kg | ~1 nM | all mice gained weight at a similar rate | no significant adverse reactions | 
2 | CCCCCCCCc1ccc(CCC(N)(CO)CO)cc1 [fingolimod, reference compound] | 0 |  |  |  |  |  |  |  |  |  |  |  |  |  |  |  |  |  |  | 
3 | COc1ccc2c(c1)C(c1ccc(F)cc1)=C(CN1CCCC1)CO2 [AX-024.HCl] |  |  |  |  |  |  |  |  |  |  |  |  |  |  |  |  |  |  |  | Neither dose of the drug significantly inhibited

Source: patent US20190231745A1, “INHIBITORS OF T CELL RECEPTOR AND USES THEREOF” (Consejo Superior De Investigaciones Cientificas, priority 2017, published 2019)
